Tests used:
[1] = tested on: VCaP cells; assay: Cellular growth inhibition assay for VCaP cells, CellTiter-Glo; assay type: cell-based, human; conditions: 72 hours
Procedure, shortened: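 GI50 values come from four-parameter curve fits of luminescence data normalized to a zero baseline. Compound, in medium with 0.5% DMSO, was added one day after plating and left for 72 h before CellTiter-Glo 2.0 addition.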

[2] = tested on: T-Rex 293 cell line SC3 cells lacking increased expression of androgen receptor protein; assay: Cellular growth inhibition, T-Rex 293 SC3 cells without doxycycline (no increased androgen receptor expression), CellTiter-Glo; assay type: cell-based; conditions: T-Rex 293 SC3 cells not exposed to doxycycline (no increased androgen receptor expression), 72 hours
Procedure, shortened: (§1)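 Doxycycline (10 ng/mL) was either included or omitted to toggle wild-type androgen receptor expression in SC3 cells, a T-Rex 293 clone, grown in stripped-serum, phenol red-free medium. After 72 hours with compound, viable cells were quantified by CellTiter-Glo 2.0.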

[3] = tested on: T-Rex 293 cell line SC3 cells having increased expression of androgen receptor protein due to exposure to doxycycline; assay: Cellular growth inhibition, T-Rex 293 SC3 cells with doxycycline (increased androgen receptor expression), CellTiter-Glo; assay type: cell-based; conditions: T-Rex 293 SC3 cells with 10 ng/mL doxycycline (increased androgen receptor expression), 72 hours, CellTiter-Glo 2.0
Procedure, shortened: as §1

Row | Compound | GI50 ([1]; Homo sapiens) [nM] | GI50 [2] [nM] | GI50 [3] [nM] | GI50 [1] [nM]
1 | CCS(=O)(=O)Nc1ccc(Oc2cccc(CCN3CC4CN(c5ncc(C(=O)N[C@H]6C(C)(C)[C@H](Oc7ccc(C#N)c(Cl)c7)C6(C)C)cn5)CC4C3)c2)c(-c2cn(C)c(=O)c3[nH]ccc23)c1 (stereo partly drawn) [Compound I-119] | < 500 | < 500 | < 500 | –
2 | Cn1cc(-c2cc(N)ccc2Oc2cccc(OCCC3CCN(c4ncc(C(=O)N[C@H]5C(C)(C)[C@H](Oc6ccc(C#N)c(Cl)c6)C5(C)C)cn4)CC3)c2)c2cc[nH]c2c1=O [Compound I-101] | < 500 | > 3000 | < 500 | –
3 | Cn1cc(-c2cc(C(C)(C)O)ccc2Oc2ccc(OCC3CCN(c4ncc(C(=O)N[C@H]5C(C)(C)[C@H](Oc6ccc(C#N)c(Cl)c6)C5(C)C)cn4)CC3)cc2)c2cc[nH]c2c1=O [Compound I-202] | 500 to 1500 | 500 to 1500 | < 500 | –
4 | Cn1cc(-c2cc(C(C)(C)O)ccc2Oc2ccc(N3CC(OC4CCN(c5ncc(C(=O)N[C@H]6C(C)(C)[C@H](Oc7ccc(C#N)c(Cl)c7)C6(C)C)cn5)CC4)C3)cc2)c2cc[nH]c2c1=O [Compound I-219] | < 500 | < 500 | < 500 | –
5 | CCS(=O)(=O)Nc1ccc(Oc2cccc(CCOC3CCN(c4ncc(C(=O)N[C@H]5C(C)(C)[C@H](Oc6ccc(C#N)c(Cl)c6)C5(C)C)cn4)CC3)c2)c(-c2cn(C)c(=O)c3[nH]ccc23)c1 [Compound I-19] | < 500 | < 500 | < 500 | –
6 | CCS(=O)(=O)Nc1ccc(Oc2cccc(N3CC4(CN(CC5CCN(c6ncc(C(=O)N[C@H]7C(C)(C)[C@H](Oc8ccc(C#N)c(Cl)c8)C7(C)C)cn6)CC5)C4)C3)c2)c(-c2cn(C)c(=O)c3[nH]ccc23)c1 [Compound I-35, N-((1r, 3r)-3-(3-chloro-4-cyanophenoxy)-2,2,4,4-tetramethylcyclobutyl)-2-(4-((6-(3-(4-(ethylsulfonamido)-2-(6-methyl-7-oxo-6,7-dihydro-1H-pyrrolo[2,3-c]pyridin-4-yl)phenoxy)phenyl)-2,6-diazaspiro[3.3]heptan-2-yl)methyl)piperidin-1-yl)pyrimidine-5-carboxamide] | < 500 | 1500 to 3000 | < 500 | –
7 | Cn1cc(-c2cc(C(C)(C)O)ccc2Oc2ccc(N3CC4(C3)CN(c3ncc(C(=O)N[C@H]5C(C)(C)[C@H](Oc6ccc(C#N)c(Cl)c6)C5(C)C)cn3)CCO4)cc2)c2cc[nH]c2c1=O [Compound I-212] | – | 500 to 1500 | < 500 | 1500 to 3000
8 | Cn1cc(-c2cc(C(C)(C)O)ccc2Oc2ccc(CCCC3CC4(C3)CN(c3ncc(C(=O)N[C@H]5C(C)(C)[C@H](Oc6ccc(C#N)c(Cl)c6)C5(C)C)cn3)C4)cc2)c2cc[nH]c2c1=O [Compound I-268] | < 500 | 500 to 1500 | < 500 | –
9 | CCS(=O)(=O)N(C)c1ccc(Oc2cccc(N3CCN(C4CN(c5ncc(C(=O)N[C@H]6C(C)(C)[C@H](Oc7ccc(C#N)c(Cl)c7)C6(C)C)cn5)C4)CC3)c2)c(-c2cn(C)c(=O)c3[nH]ccc23)c1 [Compound I-118] | < 500 | > 3000 | < 500 | –
10 | CCS(=O)(=O)Nc1ccc(Oc2cccc(OCCOC3CCN(c4cnc(C(=O)N[C@H]5C(C)(C)[C@H](Oc6ccc(C#N)c(Cl)c6)C5(C)C)cn4)CC3)c2)c(-c2cn(C)c(=O)c3[nH]ccc23)c1 [Compound I-71, N-((1r, 3r)-3-(3-chloro-4-cyanophenoxy)-2,2,4,4-tetramethylcyclobutyl)-5-(4-(2-(3-(4-(ethylsulfonamido)-2-(6-methyl-7-oxo-6,7-dihydro-1H-pyrrolo[2,3-c]pyridin-4-yl)phenoxy)phenoxy)ethoxy)piperidin-1-yl)pyrazine-2-carboxamide] | < 500 | < 500 | < 500 | –
11 | Cn1cc(-c2cc(C(C)(C)O)ccc2Oc2ccc(CC3CCN(c4ncc(C(=O)N[C@H]5C(C)(C)[C@H](Oc6ccc(C#N)c(Cl)c6)C5(C)C)cn4)CC3)cc2)c2cc[nH]c2c1=O [Compound I-201] | 500 to 1500 | 500 to 1500 | < 500 | –
12 | CCS(=O)(=O)Nc1ccc(Oc2cccc(N3CC(CC4CN(c5ncc(C(=O)N[C@H]6C(C)(C)[C@H](Oc7ccc(C#N)c(Cl)c7)C6(C)C)cn5)C4)C3)c2)c(-c2cn(C)c(=O)c3[nH]ccc23)c1 [Compound I-158] | – | > 3000 | < 500 | < 500
13 | CCS(=O)(=O)Nc1ccc(Oc2cccc(OCCOC3CCN(c4ccc(C(=O)N[C@H]5C(C)(C)[C@H](Oc6ccc(C#N)c(Cl)c6)C5(C)C)cn4)CC3)c2)c(-c2cn(C)c(=O)c3[nH]ccc23)c1 [Compound I-70, N-((1r, 3r)-3-(3-chloro-4-cyanophenoxy)-2,2,4,4-tetramethylcyclobutyl)-6-(4-(2-(3-(4-(ethylsulfonamido)-2-(6-methyl-7-oxo-6,7-dihydro-1H-pyrrolo[2,3-c]pyridin-4-yl)phenoxy)phenoxy)ethoxy)piperidin-1-yl)nicotinamide] | < 500 | < 500 | < 500 | –
14 | CCS(=O)(=O)Nc1ccc(Oc2cccc(OC3CC(C4CCN(c5ncc(C(=O)N[C@H]6C(C)(C)[C@H](Oc7ccc(C#N)c(Cl)c7)C6(C)C)cn5)CC4)C3)c2)c(-c2cn(C)c(=O)c3[nH]ccc23)c1 (stereo partly drawn) [Compound I-104] | – | 500 to 1500 | < 500 | < 500
15 | CC(C)N(C1CCN(c2ncc(C(=O)N[C@H]3C(C)(C)[C@H](Oc4ccc(C#N)c(Cl)c4)C3(C)C)cn2)CC1)C1CN(c2cccc(Oc3ccc(C(C)(C)O)cc3-c3cn(C)c(=O)c4[nH]ccc34)c2F)C1 [Compound I-221] | > 3000 | > 3000 | < 500 | –
16 | CCS(=O)(=O)c1ccc(Oc2cccc(OCCN3CCN(c4ncc5c(n4)CN([C@H]4C(C)(C)[C@H](Oc6ccc(C#N)c(Cl)c6)C4(C)C)C5=O)CC3)c2F)c(-c2cn(C)c(=O)c3[nH]ccc23)c1 [Compound I-217] | – | < 500 | < 500 | < 500
17 | Cn1cc(-c2cc(N)ccc2Oc2cccc(N3CC(N4CCN(c5ncc(C(=O)N[C@H]6C(C)(C)[C@H](Oc7ccc(C#N)c(Cl)c7)C6(C)C)cn5)CC4)C3)c2F)c2cc[nH]c2c1=O [Compound I-93] | < 500 | > 3000 | < 500 | –
18 | Cn1cc(-c2cc(C(C)(C)O)ccc2Oc2ccc(N3CC(CC4CN(c5ncc(C(=O)N[C@H]6C(C)(C)[C@H](Oc7ccc(C#N)c(Cl)c7)C6(C)C)cn5)C4)C3)cc2)c2cc[nH]c2c1=O [Compound I-280] | < 500 | 1500 to 3000 | < 500 | –
19 | CN(C1CCN(c2ncc(C(=O)N[C@H]3C(C)(C)[C@H](Oc4ccc(C#N)c(Cl)c4)C3(C)C)cn2)CC1)C1CN(c2ccc(Oc3ccc(C(C)(C)O)cc3-c3cn(C)c(=O)c4[nH]ccc34)cc2)C1 [Compound I-208] | 500 to 1500 | < 500 | < 500 | –
20 | Cn1cc(-c2cc(C(C)(C)O)ccc2Oc2ccc(OCCN3CCN(c4ncc(C(=O)N[C@H]5C(C)(C)[C@H](Oc6ccc(C#N)c(Cl)c6)C5(C)C)cn4)CC3)cc2)c2cc[nH]c2c1=O [Compound I-204] | < 500 | 500 to 1500 | < 500 | –
21 | Cn1cc(-c2cc(C(C)(C)O)ccc2Oc2cccc(N3CC4(CN(c5ncc(C(=O)N[C@H]6C(C)(C)[C@H](Oc7ccc(C#N)c(Cl)c7)C6(C)C)cn5)CCO4)C3)c2F)c2cc[nH]c2c1=O [Compound I-216] | < 500 | < 500 | < 500 | –
22 | CCS(=O)(=O)Nc1ccc(Oc2cccc(N3CC(N(C)C4CN(c5ncc(C(=O)N[C@H]6C(C)(C)[C@H](Oc7ccc(C#N)c(Cl)c7)C6(C)C)cn5)C4)C3)c2)c(-c2cn(C)c(=O)c3[nH]ccc23)c1 [Compound I-120] | < 500 | > 3000 | < 500 | –
23 | CN(C1CN(c2ccc(Oc3ccc(C(C)(C)O)cc3-c3cn(C)c(=O)c4[nH]ccc34)cc2)C1)C1CN(c2ncc(C(=O)N[C@H]3C(C)(C)[C@H](Oc4ccc(C#N)c(Cl)c4)C3(C)C)cn2)C1 [Compound I-238] | – | 500 to 1500 | < 500 | < 500
24 | Cn1cc(-c2cc(N)ccc2Oc2cccc(OCCN3CCN(c4ncc(C(=O)N[C@H]5C(C)(C)[C@H](Oc6ccc(C#N)c(Cl)c6)C5(C)C)cn4)CC3)c2F)c2cc[nH]c2c1=O [Compound I-100] | < 500 | > 3000 | < 500 | –
25 | CN(CC1CCN(c2ncc(C(=O)N[C@H]3C(C)(C)[C@H](Oc4ccc(C#N)c(Cl)c4)C3(C)C)cn2)CC1)C1(c2ccc(Oc3ccc(C(C)(C)O)cc3-c3cn(C)c(=O)c4[nH]ccc34)cc2)COC1 [Compound I-255] | – | 500 to 1500 | < 500 | < 500
26 | CCS(=O)(=O)Nc1ccc(Oc2cccc(OC3CCC4(CC3)CCN(c3ncc(C(=O)N[C@H]5C(C)(C)[C@H](Oc6ccc(C#N)c(Cl)c6)C5(C)C)cn3)CC4)c2)c(-c2cn(C)c(=O)c3[nH]ccc23)c1 [Compound I-45] | < 500 | > 3000 | < 500 | –
27 | CCS(=O)(=O)c1ccc(Oc2ccc(OCC3CCN(c4ncc5c(n4)CN([C@H]4C(C)(C)[C@H](Cc6ccc(C#N)c(Cl)c6)C4(C)C)C5=O)CC3)cc2)c(-c2cn(C)c(=O)c3[nH]ccc23)c1 [Compound I-220] | > 3000 | < 500 | < 500 | –
28 | Cn1cc(-c2cc(C(C)(C)O)ccc2Oc2ccc(N3CC(CC4CCN(c5ncc(C(=O)N[C@H]6C(C)(C)[C@H](Oc7ccc(C#N)c(Cl)c7)C6(C)C)cn5)CC4)C3)cc2)c2cc[nH]c2c1=O [Compound I-232] | 500 to 1500 | > 3000 | < 500 | –

— patent publication US20250388605A1, “HETEROBIFUNCTIONAL COMPOUNDS AND METHODS OF TREATING DISEASE” (Halda Therapeutics OpCo, Inc., priority 2022, published 2025)
